Assay results taken from ChEMBL document CHEMBL4152374, “A new phenolic series of indenopyridinone as topoisomerase inhibitors: Design, synthesis, and structure-activity relationships” (Bioorg Med Chem, 2018).
pIC50: −log10 of the molar value. Structures can show the parent of a compound that is named as a salt.

Columns and labels:
[1] = molecular target: DNA topoisomerase 2-alpha (Homo sapiens) (UniProt P11388); experiment: Inhibition of human topoisomerase 2-alpha using supercoiled pBR322 plasmid DNA as substrate at 100 uM after 30 mins by agarose gel electrophoresis method relative to control
Chain of DNA topoisomerase 2-alpha (Homo sapiens) (P11388 whole entry): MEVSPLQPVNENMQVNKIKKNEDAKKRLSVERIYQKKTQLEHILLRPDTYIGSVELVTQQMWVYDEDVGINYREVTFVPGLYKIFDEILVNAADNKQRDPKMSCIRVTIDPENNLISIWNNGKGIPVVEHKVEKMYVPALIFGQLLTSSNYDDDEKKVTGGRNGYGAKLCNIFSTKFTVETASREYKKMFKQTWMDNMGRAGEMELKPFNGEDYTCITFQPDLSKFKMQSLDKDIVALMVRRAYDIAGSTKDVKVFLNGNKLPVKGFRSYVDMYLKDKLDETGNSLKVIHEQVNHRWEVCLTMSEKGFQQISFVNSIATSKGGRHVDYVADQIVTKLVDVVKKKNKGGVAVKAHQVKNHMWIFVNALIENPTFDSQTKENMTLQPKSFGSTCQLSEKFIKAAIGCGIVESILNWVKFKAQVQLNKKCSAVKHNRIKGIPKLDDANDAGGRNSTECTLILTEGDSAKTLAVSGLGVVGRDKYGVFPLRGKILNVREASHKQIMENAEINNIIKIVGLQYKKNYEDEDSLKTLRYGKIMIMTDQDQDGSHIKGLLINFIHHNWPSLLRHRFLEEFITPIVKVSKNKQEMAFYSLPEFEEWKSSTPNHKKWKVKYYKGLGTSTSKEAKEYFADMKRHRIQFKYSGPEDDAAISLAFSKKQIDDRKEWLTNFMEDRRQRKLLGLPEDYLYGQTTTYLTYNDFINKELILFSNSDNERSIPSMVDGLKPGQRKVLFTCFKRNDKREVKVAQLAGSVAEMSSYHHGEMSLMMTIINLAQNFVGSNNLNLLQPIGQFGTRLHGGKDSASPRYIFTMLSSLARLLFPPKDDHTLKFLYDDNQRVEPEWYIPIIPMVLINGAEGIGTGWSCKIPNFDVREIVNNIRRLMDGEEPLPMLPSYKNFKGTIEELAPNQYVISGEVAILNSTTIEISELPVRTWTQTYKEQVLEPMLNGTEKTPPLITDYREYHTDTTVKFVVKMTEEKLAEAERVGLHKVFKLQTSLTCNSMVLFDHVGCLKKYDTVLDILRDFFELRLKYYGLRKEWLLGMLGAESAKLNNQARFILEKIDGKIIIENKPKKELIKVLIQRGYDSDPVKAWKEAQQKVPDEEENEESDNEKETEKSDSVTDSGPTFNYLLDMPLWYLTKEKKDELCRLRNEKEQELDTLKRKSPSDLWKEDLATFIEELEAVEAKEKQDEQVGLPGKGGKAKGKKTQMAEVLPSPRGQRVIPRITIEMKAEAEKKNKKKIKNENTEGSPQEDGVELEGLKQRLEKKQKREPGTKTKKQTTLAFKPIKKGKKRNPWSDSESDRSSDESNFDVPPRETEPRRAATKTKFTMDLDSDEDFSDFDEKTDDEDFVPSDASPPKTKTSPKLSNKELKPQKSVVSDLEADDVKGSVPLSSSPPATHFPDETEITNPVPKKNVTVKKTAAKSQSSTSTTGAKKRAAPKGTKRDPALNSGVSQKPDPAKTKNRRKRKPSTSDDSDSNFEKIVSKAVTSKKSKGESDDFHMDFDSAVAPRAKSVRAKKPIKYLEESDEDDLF

[2] = molecular target: T1, DNA topoisomerase 1 (Homo sapiens) (UniProt P11387); experiment: Inhibition of human topoisomerase 1 using supercoiled pBR322 plasmid DNA as substrate at 100 uM after 30 mins by agarose gel electrophoresis method relative to control
T1 sequence (whole entry): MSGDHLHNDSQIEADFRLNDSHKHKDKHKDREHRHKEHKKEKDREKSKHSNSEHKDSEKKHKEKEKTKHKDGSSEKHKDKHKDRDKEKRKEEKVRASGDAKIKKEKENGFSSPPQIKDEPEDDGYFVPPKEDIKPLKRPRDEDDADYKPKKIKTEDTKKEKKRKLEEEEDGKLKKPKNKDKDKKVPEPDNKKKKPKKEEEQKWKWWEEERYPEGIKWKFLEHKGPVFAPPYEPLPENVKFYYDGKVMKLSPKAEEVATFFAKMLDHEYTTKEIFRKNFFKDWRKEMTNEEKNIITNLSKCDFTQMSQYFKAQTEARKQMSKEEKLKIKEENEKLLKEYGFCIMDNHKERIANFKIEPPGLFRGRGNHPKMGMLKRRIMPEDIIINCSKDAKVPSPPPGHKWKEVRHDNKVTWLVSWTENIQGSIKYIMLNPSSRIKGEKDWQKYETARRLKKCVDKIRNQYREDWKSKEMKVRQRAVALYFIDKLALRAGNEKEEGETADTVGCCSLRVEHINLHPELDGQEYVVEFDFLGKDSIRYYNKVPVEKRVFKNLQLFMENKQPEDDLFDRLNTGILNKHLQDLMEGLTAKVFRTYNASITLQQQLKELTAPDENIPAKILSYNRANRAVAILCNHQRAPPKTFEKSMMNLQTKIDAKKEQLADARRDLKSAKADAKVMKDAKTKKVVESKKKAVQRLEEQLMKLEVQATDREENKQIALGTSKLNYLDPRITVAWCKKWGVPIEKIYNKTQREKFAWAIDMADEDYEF

[3] = tested on: HeLa; experiment: Antiproliferative activity against human HeLa cells after 72 hrs by EZ-CYTOX reagent based assay; type: functional, cell-based
[4] = tested on: HCT-15; experiment: Antiproliferative activity against human HCT15 cells after 72 hrs by EZ-CYTOX reagent based assay; type: functional, cell-based; conditions: HCT-15, 72 h
[5] = tested on: T47D; experiment: Antiproliferative activity against human T47D cells after 72 hrs by EZ-CYTOX reagent based assay; type: functional, cell-based
[6] = molecular target: DNA topoisomerase 2-alpha (Homo sapiens) (UniProt P11388); experiment: Inhibition of human topoisomerase 2-alpha using supercoiled pBR322 plasmid DNA as substrate at 100 uM after 30 mins by agarose gel electrophoresis method relative to etoposide
[7] = molecular target: DNA topoisomerase 2-alpha (Homo sapiens) (UniProt P11388); experiment: Inhibition of human topoisomerase 2-alpha using supercoiled pBR322 plasmid DNA as substrate at 20 uM after 30 mins by agarose gel electrophoresis method relative to control
[8] = molecular target: DNA topoisomerase 2-alpha (Homo sapiens) (UniProt P11388); experiment: Inhibition of human topoisomerase 2-alpha using supercoiled pBR322 plasmid DNA as substrate at 20 uM after 30 mins by agarose gel electrophoresis method relative to etoposide
[9] = molecular target: T1, DNA topoisomerase 1 (Homo sapiens); experiment: Inhibition of human topoisomerase 1 using supercoiled pBR322 plasmid DNA as substrate at 20 uM after 30 mins by agarose gel electrophoresis method relative to control
[10] = tested on: Calf thymus DNA; experiment: Inhibition of EtBr binding to calf thymus DNA up to 40 uM by fluorescence spectroscopy; type: nucleic-acid assay; conditions: Bos taurus

Row | Compound | inhibition [1] | inhibition [2] | pIC50 [3] | pIC50 [4] | pIC50 [5] | fold change (FC) [6] | inhibition [7] | fold change (FC) [8] | inhibition [9] | inhibition [10]
1 | O=C1c2ccccc2-c2nc(-c3cccc(O)c3)cc(-c3ccccc3)c21 | 22.5% | 0.5% | < 4.30 | < 4.30 | < 4.30 | 0.32 |  |  |  | 
2 | O=C1c2ccccc2-c2nc(-c3ccc(O)cc3)cc(-c3ccc(O)cc3)c21 | 100% | 0% | 5.33 | 5.73 | 6.43 | 1.33 to 1.42 | 30.5% | 0.61 |  | 
3 | O=C1c2ccccc2-c2nc(-c3ccccc3O)cc(-c3ccccc3)c21 | 4.9% | 0% | 4.50 | < 4.30 | 4.98 | 0.06 |  |  |  | 
4 | Oc1ccc(-c2cc(-c3cccc(O)c3)c3c(n2)-c2ccccc2C3O)cc1 (configuration not stated) | 60.9% | 71.9% | 5.15 | 5.01 | 5.77 |  | 26.7% |  | 61.7% | 
5 | OC1c2ccccc2-c2nc(-c3ccccc3)cc(-c3ccccc3)c21 (configuration not stated) | 21.5% | 81% | < 4.30 | < 4.30 | < 4.30 |  |  |  | 0% | 
6 | Oc1ccc(-c2cc(-c3ccccc3O)c3c(n2)-c2ccccc2C3O)cc1 (configuration not stated) | 57.7% | 11.5% | 4.97 | 4.89 | 5.37 |  | 12.1% |  |  | 
7 | O=C1c2ccccc2-c2nc(-c3cccc(O)c3)cc(-c3ccccc3O)c21 | 2.6% | 0% | 5.82 | 5.87 | 6.96 | 0.03 |  |  |  | 
8 | Oc1cccc(-c2cc(-c3ccccc3)c3c(n2)-c2ccccc2C3O)c1 (configuration not stated) | 40.7% | 0% | < 4.30 | < 4.30 | < 4.30 |  | 0.3% |  |  | 
9 | COc1cccc2c1C(=O)c1c(O)c3c(c(O)c1C2=O)C[C@@](O)(C(=O)CO)C[C@@H]3O[C@H]1C[C@H](N)[C@H](O)[C@H](C)O1 [DOXORUBICIN HYDROCHLORIDE] |  |  | 5.82 |  | 6.51 |  |  |  |  | 
10 | Oc1cccc(-c2cc(-c3cccc(O)c3)c3c(n2)-c2ccccc2C3O)c1 (configuration not stated) | 55.1% | 20.1% | 5.16 | 5.21 | 5.79 |  | 17.8% |  |  | 
11 | O=C1c2ccccc2-c2nc(-c3ccc(O)cc3)cc(-c3ccccc3O)c21 | 72.8% | 60% | 5.64 | 5.55 | 6.38 | 1.04 | 12% | 0.27 | 0% | 
12 | O=C1c2ccccc2-c2nc(-c3ccc(O)cc3)cc(-c3ccccc3)c21 | 23.3% | 0% | 5.65 | 5.66 | 5.85 | 0.31 |  |  |  | 
13 | O=C1c2ccccc2-c2nc(-c3ccccc3O)cc(-c3ccc(O)cc3)c21 | 5.2% | 0% | < 4.30 | < 4.30 | < 4.30 | 0.07 |  |  |  | 
14 | O=C1c2ccccc2-c2nc(-c3ccc(O)cc3)cc(-c3cccc(O)c3)c21 | 71.9% | 75.5% | 5.36 | 5.71 | 5.83 | 1.02 | 60.5% | 1.38 | 7.5% | 
15 | O=C1c2ccccc2-c2nc(-c3cccc(O)c3)cc(-c3ccc(O)cc3)c21 | 100% | 42.6% | < 4.30 | 5.02 | 5.81 | 1.33 to 1.42 | 93.7% | 1.88 to 1.89 | 35.4% | Dose-dependent effect
16 | O=C1c2ccccc2-c2nc(-c3ccccc3O)cc(-c3cccc(O)c3)c21 | 86.5% | 0% | 5.32 | 5.22 | < 4.30 | 1.15 to 1.23 | 12.8% | 0.26 |  | 
17 | O=C1c2ccccc2-c2nc(-c3ccccc3)cc(-c3ccc(O)cc3)c21 | 63.3% | 50% | < 4.30 | < 4.30 | < 4.30 | 0.9 | 15.2% | 0.35 | 0% | 
18 | COc1cc(NS(C)(=O)=O)ccc1Nc1c2ccccc2nc2ccccc12 |  |  |  |  |  |  |  |  |  | Dose-dependent effect
19 | COc1cc([C@@H]2c3cc4c(cc3[C@@H](O[C@@H]3O[C@@H]5CO[C@@H](C)O[C@H]5[C@H](O)[C@H]3O)[C@H]3COC(=O)[C@H]23)OCO4)cc(OC)c1O [ETOPOSIDE] |  |  | 5.04 | 5.53 | 6.40 |  |  |  |  | 
20 | O=C1c2ccccc2-c2nc(-c3ccccc3)cc(-c3ccccc3)c21 | 25% | 5.8% | < 4.30 | < 4.30 | 5.19 |  |  |  |  | 
21 | O=C1c2ccccc2-c2nc(-c3ccccc3O)cc(-c3ccccc3O)c21 | 32.8% | 0% | < 4.30 | < 4.30 | < 4.30 | 0.44 | 9.9% | 0.2 |  | 
22 | Oc1ccc(-c2cc(-c3ccccc3)nc3c2C(O)c2ccccc2-3)cc1 (configuration not stated) | 53.6% | 63.9% | < 4.30 | < 4.30 | 5.49 |  | 22.6% |  | 0% | 
23 | O=C1c2ccccc2-c2nc(-c3ccccc3)cc(-c3cccc(O)c3)c21 | 9.3% | 7.4% | 5.65 | 5.61 | 5.93 | 0.12 |  |  |  | 
24 | CC[C@@]1(O)C(=O)OCc2c1cc1n(c2=O)Cc2cc3ccccc3nc2-1 [CAMPTOTHECIN] |  |  | 5.86 | 7.30 |  |  |  |  |  | 
25 | O=C1c2ccccc2-c2nc(-c3ccccc3)cc(-c3ccccc3O)c21 | 23.8% | 0% | 5.59 | 5.63 | 5.88 | 0.32 |  |  |  | 
26 | O=C1c2ccccc2-c2nc(-c3cccc(O)c3)cc(-c3cccc(O)c3)c21 | 68.9% | 25.7% | < 4.30 | < 4.30 | 5.91 | 0.98 | 20.8% | 0.47 |  | 
